Series [1] in a line: Cytotoxicity on LLC-MK2 cells. In kind it is cell-based, monkey. The settings on record: monkey, LLC-MK2 cells, read-out: Cytotoxicity against LLC-MK2 CC50. As to the method: (§1) The cytotoxicity of the extracts and pure compounds were estimated on LLC-MK2 monkey kidney epithelial cells as previously described with some modifications. The cell line was ordered from the American Type Culture Collection (ATCC, Manassas, Virginia, USA) and maintained in continuous culture.
(§2) Each product was tested in triplicate, in two to three separate experiments, giving a total of six to nine repeats per product and per concentration tested. The IC50 and CC50 values obtained from the replicates were pooled and expressed as geometric mean IC50 and standard deviation. The different means were compared among themselves by independent samples t-test.
(§3) The selectivity index defined as SI = CC50/IC50 was equally considered for compounds with mild cytotoxicity with SI<10 for toxic products. Based on these cut-off values, all products isolated from D. edulis in the present study were non-toxic against the LLC-MK2 cell-line.

Series [2] has as its system LLC-MK2 monkey kidney epithelial cells. Briefly: Cytotoxicity on LLC-MK2 cells. In kind it is cell-based. Particulars: SI = CC50/IC50, LLC-MK2 vs Dd2. As to the method:
as §1, §2, §3

The subject of series [3] is Dd2 (multidrug-resistant) strain of Plasmodium falciparum. Kind of series: Antiplasmodial screen, parasite lactate dehydrogenase (pLDH) assay, Dd2 strain. In kind it is cell-based. The settings on record: for Activity against Dd2 IC50 / Activity against Dd2 IC95: P. falciparum Dd2, pLDH assay; for IC50: Plasmodium falciparum. As to the method:
(§4) The 3D7 (MRA-102), and Dd2 (MRA-615) strains were kindly donated by BEI-Resources (MR4, Manassas, VA, USA), and maintained in continuous culture, with back up stored in liquid nitrogen.
(§5) The laboratory strains of P. falciparum were grown and maintained in culture using the method of Trager and Jensen with some modifications. All the chemicals except Albumax II (Gibco; Invitrogen, USA), were ordered from Sigma-Aldrich Inc (Germany). The cultures were monitored and parasitemia assessed using both fluorescence (acridine orange) and normal light (Giemsa stain) microscopes.
(§6) The antiplasmodial screen was carried out in 96-well microtitration plates as described by Desjardins et al. with some modifications. The different drug stock solutions were prepared by predisolving the powder in DMSO (200 µL for a final volume of 10 mL stock solution) and subsequently with the culture medium. The parasitaemia was measured using the parasite lactate dehydrogenase (pLDH) assay as previously described.
as §2

Series [4] concerns Dd2. Kind of series: Stage-specific activity: variation of IC50 with exposure time, sorbitol-synchronized ring stage culture. The series is classed as cell-based. Particulars: Plasmodium falciparum. An excerpt:
As a preliminary study towards the understanding of the mechanisms of action of the active drugs, the stage-specific activity of the products was studied by investigation of the variation in IC50 values with exposure time.
Figure 2 Variation of IC50 against Dd2 with exposure time. […] The IC50 values presented were obtained from two distinct experiments run in duplicate each.

Series [5] concerns 3D7 (chloroquine-susceptible) strain of Plasmodium falciparum. Kind of series: Antiplasmodial screen, parasite lactate dehydrogenase (pLDH) assay, 3D7 strain. The series is classed as cell-based. The settings on record: for Activity against 3D7 IC50 / Activity against 3D7 IC95: P. falciparum 3D7, pLDH assay; for IC50: Plasmodium falciparum. As to the method:
as §4, §5, §6, §2

The test system of series [6] is Dd2. Kind of series: Drug-interaction study, fixed-ratio combinations, FIC / Combination Index / isobologram. The series is classed as cell-based, Plasmodium falciparum. The settings on record: for Increase of activity on combining DES4 and quinine: DES4 plus quinine. As to the method:
From the results obtained with individual drugs, a stock solution of 32 x IC50 of each drug was prepared and used in preparing a series of six combinations ([1]–[6]) containing 5:0, 4:1, 3:2, 2:3, 1:4 and 0:5 proportions volume:volume of Drug A versus Drug B respectively. Each of these formulations were then tested and their different inhibitory concentrations determined separately.
IC50 values obtained for the different drug mixtures were used to calculate the Fractional Inhibitory Concentration (FIC) for each drug as described previously. FIC-A for example measures how much the presence of Drug B affects the activity of Drug A in the mixture, and vis versa.
FIC−A=IC50−A(comb.)/IC50−A(alone)
FIC−B=IC50−B(comb.)/IC50−B(alone)
A graph was constructed with the axes representing the mean FIC of linear scales, with mean FIC-A on the x axis and FIC-B on the y axis. When the combination is additive, the isobole which is the line joining the points that represent all the (x, y) points is straight. Synergistic combinations give concave isoboles, and antagonistic combinations give convex isoboles.
CI values were therefore calculated separately for both the drugs present in combinations 2 through 5; combinations 1 and 6 containing Drug A and Drug B alone. In addition to analyzing the result obtained with each drug combination formula, an overall mean CI value for the four combinations was determined to conclude on the interaction patterns of the two drugs being tested. Synergy or antagonism was defined as a mean CI< or >1, respectively, and lack of interaction (also termed additivity) defined as CI= 1 [21].
IC50 values were used to calculate the Fractional Inhibitory Concentration (FIC) for each drug as described previously. FIC-A measures how much the presence of a Drug B affects the activity of Drug-A in the mixture. […] Statistical significance was defined as p<0.05. A graph was constructed with the axes representing the mean FIC of linear scales, with mean FIC-A on the x-axis and FIC-B on the y-axis. When the combination is additive, the isobole which is the line joining the points that represent all the (x, y) points is straight. Synergistic combinations give concave isoboles, and antagonistic combinations give convex isoboles.
The overall mean CI value for the four combinations formulae was finally determined and synergy or antagonism between the two drugs in combination, defined as a mean CI< or >1, respectively, lack of interaction or additivity defined as CI = 1 [21].

Where [7] appears, read: 3D7, read-out: Activity against 3D7 IC50, P. falciparum 3D7, pLDH assay.
The mark [8] stands for this setting: DD2, P. falciparum Dd2, pLDH assay, read-out: Activity against Dd2 IC50.
The mark [9] stands for this setting: 3D7, P. falciparum 3D7, pLDH assay, read-out: Activity against 3D7 IC50.
The mark [10] stands for this setting: Dd2, synchronized ring stage, 24 hours exposure, read-out: IC50 against Dd2, exposure time 24 hours.
Setting [11] is: Dd2, synchronized ring stage, 48 hours exposure, read-out: IC50 against Dd2, exposure time 48 hours.
Where [12] appears, read: DES4 combined with quinine, Dd2.

≈ marks a conversion by molar mass, not a printed value. Entries after “also recorded” stand apart in the source; their conditions may differ. Read-outs that look alike come from different tables or passages of the source. A value given as a limit tells only on which side of the number the result lay.

In general, CC50 refers to the concentration giving 50% cytotoxicity. What is called IC50 is the midpoint of a concentration-inhibition curve. For the compound `C[C@@H]1O[C@@H](Oc2c(-c3ccc(O)c(O)c3)oc3cc(O)cc(O)c3c2=O)[C@H](O)[C@H](O)[C@H]1O` [DES1, Quercitrin], in series [1], the CC50 is more than 100 µg/mL. Besides, the “Selectivity index/Dd2” value in series [2] is recorded as more than 44. Also, in series [3], the “Activity against Dd2 IC50” value is on record as “below 10 µg/mL” and the “Activity against Dd2 IC95” value came out at 23.82 ± 6.35 µg/mL. The IC50 in the series with Dd2 [4] (DD2, 24 h, read-out: IC50 against Dd2, exposure time 24 hours) amounted to 1.41 µg/mL (≈ 3.14 µM). Further, the IC50 in the series with Dd2 [4] (DD2, 48 h, read-out: IC50 against Dd2, exposure time 48 hours) was 2.19 µg/mL (≈ 4.88 µM). For the same compound, in series [5], the “Activity against 3D7 IC50” value was found to be 5.96 ± 0.51 µg/mL and the “Activity against 3D7 IC95” value is 18.53 ± 3.13 µg/mL. Moreover, in series [5] (setting [7]), the IC50 was less than 10 µg/mL.

As to `C[C@@H]1O[C@@H](Oc2c(-c3ccc(O)cc3)oc3cc(O)cc(O)c3c2=O)[C@H](O)[C@H](O)[C@H]1O` [DES2, Afzelin], in series [1], the CC50 was more than 100 µg/mL. Further, the “Selectivity index/Dd2” value in series [2] is given as more than 5. In series [3], the “Activity against Dd2 IC50” value is “inactive” and the “Activity against Dd2 IC95” value amounted to 35.03 ± 3.52 µg/mL. In series [3] (DD2, read-out: Activity against Dd2 IC50, P. falciparum Dd2, pLDH assay), the IC50 was 19.3 ± 1.56 µg/mL (≈ 44.7 µM). Further, the “Activity against 3D7 IC95” value in series [5] worked out at 13.64 ± 0.48 µg/mL. The IC50 in series [5] (setting [7]) came out at 4.59 ± 0.21 µg/mL (≈ 10.6 µM).

With `O=c1c(O)c(-c2ccc(O)c(O)c2)oc2cc(O)cc(O)c12` [DES3, Quercetin], in series [1], the CC50 was more than 100 µg/mL. The “Selectivity index/Dd2” value in series [2] was more than 17. Besides, in series [3], the “Activity against Dd2 IC50” value was found to be 5.91 ± 0.97 µg/mL and the “Activity against Dd2 IC95” value came out at 15.96 ± 4.79 µg/mL. The IC50 in series [3] (setting [8]) is less than 10 µg/mL. Besides, in series [5], the “Activity against 3D7 IC50” value is 6.07 ± 0.34 µg/mL and the “Activity against 3D7 IC95” value was 15.19 ± 3.88 µg/mL. For the same compound, the IC50 in series [5] (setting [9]) was less than 10 µg/mL.

Consider `C=C[C@H]1C[N@@]2CC[C@H]1C[C@H]2[C@H](O)c1ccnc2ccc(OC)cc12` [QN, Quinine sulphate, reference compound], for which the “Activity against Dd2 IC95” value in series [3] turned out to be 0.38 ± 0.08 µg/mL. The IC50 in series [3] (setting [8]) worked out at 0.12 ± 0.01 µg/mL; with Dd2 [4] (setting [10]), 0.21 µg/mL; in the series on Dd2 [4] (setting [11]), 0.18 µg/mL; in series [5] (setting [9]), 0.13 ± 0.01 µg/mL. Further, the “Increase of activity on combining DES4 and quinine” value in the series on Dd2 [6] was found to be 6 fold. Also, the “Activity against 3D7 IC95” value in series [5] worked out at 0.48 ± 0.10 µg/mL.

As for `COC(=O)c1cc(O)c(O)c(O)c1` [DES4, methyl 3,4,5-trihydroxybenzoate], the CC50 in series [1] was more than 100 µg/mL. Further, the “Selectivity index/Dd2” value in series [2] was more than 182. The “Activity against Dd2 IC95” value in series [3] is 5.89 ± 0.95 µg/mL. For the same compound, in the series with Dd2 [6] (DES4 combined with artemether), the “Combination Index, overall value” is 1.10. Further, the “Interaction pattern with artemether” value in the series with Dd2 [6] (DES4 combined with artemether) is “additivity; also recorded: only additive effects”. In the series with Dd2 [6] (DES4 combined with quinine, Combination 2 (4:1), Dd2), the “Combination Index, Combination 2” value was 1.05. Further, in the series with Dd2 [6] (setting [12]), the “Combination Index, mean value” came to 0.65. In addition, the “Interaction pattern with quinine” value in the series on Dd2 [6] (setting [12]) is reported as “synergy; also recorded: synergistic interactions”. For the same compound, the “Increase of activity on combining DES4 and quinine” value with Dd2 [6] was 3 fold. For the same compound, the figures for the IC50 (in the series with Dd2 [4] (setting [10]); with Dd2 [4] (setting [11]); in series [5] (setting [9])) were 6.32 µg/mL (≈ 34.3 µM), 0.56 µg/mL (≈ 3.04 µM) and 0.37 ± 0.07 µg/mL (≈ 2.01 µM), respectively. Besides, the “Activity against 3D7 IC95” value in series [5] stood at 2.58 ± 2.04 µg/mL.

Take `CC[C@H](CCC(C)C1CCC2C3CC=C4C[C@@H](O[C@@H]5O[C@H](CO)[C@@H](O)[C@H](O)[C@H]5O)CC[C@]4(C)C3CC[C@]12C)C(C)C` (stereo partly drawn) [DES5, sitosterol 3-O-β-D-glucopyranoside sterol]: the CC50 in series [1] (LLC-MK2 monkey kidney epithelial cells) was more than 100 µg/mL. In series [2], the “Selectivity index/Dd2” value was more than 18. For the same compound, in series [3], the “Activity against Dd2 IC50” value is 5.34 ± 0.98 µg/mL and the “Activity against Dd2 IC95” value came out at 21.35 ± 0.44 µg/mL. In addition, the IC50 in series [3] (setting [8]) is less than 10 µg/mL. Besides, in series [5], the “Activity against 3D7 IC50” value came out at 1.90 ± 0.22 µg/mL and the “Activity against 3D7 IC95” value came out at 4.38 ± 0.87 µg/mL. Besides, in series [5] (listed as Sitosterol 3-O-β-D-glucopyranoside), the “Activity against 3D7 IC50” value is given as “below 10 µg/mL”.

Consider `CO[C@H]1O[C@@H]2O[C@@]3(C)CC[C@H]4[C@H](C)CC[C@@H]([C@H]1C)[C@@]24OO3` [ART, artemether, reference compound], for which the “Activity against Dd2 IC95” value in series [3] is 0.12 ± 0.09 µg/mL. Moreover, the figures for the IC50 in series [3] (setting [8]) and in series [5] (setting [9]) were 0.03 ± 0.01 µg/mL (≈ 0.101 µM) and 0.02 ± 0.01 µg/mL (≈ 0.067 µM), respectively. Besides, the “Activity against 3D7 IC95” value in series [5] was 0.08 ± 0.02 µg/mL.

The values above are taken from publication PMC3836662, “New Antimalarial Hits from Dacryodes edulis (Burseraceae) - Part I: Isolation, In Vitro Activity, In Silico “drug-likeness” and Pharmacokinetic Profiles” (PLoS ONE, 2013).
